The values that follow come from US8686022B2, “7-(piperazine-1-ymethyl)-1H-indole-2-carboxylic acid (phenyl)-amide derivatives and allied compounds as p38 MAP kinase inhibitors for the treatment of respiratory diseases” (Boehringer Ingelheim International GmbH, priority 2008, dated 2014).

One data set deals with p38 MAP-kinase (Homo sapiens, UniProt Q16539). Put plainly: p38 MAP-kinase enzymatic assay (phosphorylation of GST-tagged ATF2, chemoluminescence). The class given is biochemical. The following applies: inhibitor concentration 1 μM; activated p38 MAP-kinase 1 nM; ATP 100 μM; read-out: p38 (% Inh @ 1 μM). The method, then: In this, the amount of a substrate phosphorylated by the kinase is quantified. The test is carried out as follows:
The kinase reaction is carried out in the presence of HEPES (20 mM, pH 7), MgCl2 (10 mM), DTT (1 mM) and TWEEN20 (0.01%). First, dimethylsulphoxide or inhibitor (final concentration: 1 μM) dissolved in dimethylsulphoxide are placed in a reaction vessel. Then the activated p38 MAP-kinase (final concentration 1 nM) is added and the mixture is incubated for 4 h at ambient temperature. Then a mixture of substrate (GST-tagged ATF2) and ATP is added and everything is incubated together for a further hour (final concentration ATP: 100 μM; final concentration ATF2: 10 nM).
The concentration of phosphorylated ATF2 is quantified by chemoluminescence-induced light emission. For this, a glutathione donor bead (final concentration: 5 μg/ml) which binds to the gluthathione on the ATF2 and phospho-ATF2 antibodies are added to the reaction mixture (final concentration: 3 nM; this binds the phosphate group added by the kinase reaction) to which a Protein A Acceptor Bead (final concentration: 5 μg/ml) binds. These components are dissolved in a buffer which contains 20 mM HEPES pH 7.0, 200 mM NaCL, 80 mM EDTA as well as 0.3% BSA. This reaction mixture is incubated in the dark for 1 hour at ambient temperature. When these beads come physically close, visible light is emitted which is measured in a photometer at 520-620 nm.
To determine the inhibitory activity of the compounds according to the invention a calculation is made to determine the percentage by which the kinase activity is inhibited at a fixed inhibitor concentration of 1 μM. The maximum activity is determined by non-inhibited kinase. The minimum activity or nonspecific background activity is determined using a reaction mixture without kinase.
Table 2 summarises the degree of inhibition of the enzyme p38 MAP-kinase—as described hereinbefore—mediated by the compounds according to the invention detailed in the section “Preparation of the final compounds”.

The target in a further data set is cytochrome P450 2C9 (Homo sapiens, UniProt P11712). The data set is described as follows: Determining the cyp2C9 activity (O-demethylation of [O-methyl-14C]-naproxen). Type of data set: in vitro ADME. The following applies: human recombinant cytochrome P450 2C9; 37° C.; <0.4 μM when inhibition >50% at lowest concentration; read-out: CYP 2C9 IC50. Here is the method:
Determining the cyp2C9 Activity:
The assay is carried out in a robot system with 96-well plates. The final incubation volume is 200 μl of TRIS-Puffer (0.1 M), magnesium chloride (5 mM), recombinant protein (40 pmol/ml), ^14C-labelled naproxen (80 μM) and the test compound in one of 4 concentrations (50 μM, 10 μM, 2 μM and 0.4 μM) as a duplicate in each case. After a short preincubation period the reactions are started by the addition of the cofactor (NADPH, 1 mM) and ended after 15 min by the addition of 50 μl of a 10% aqueous trichloroacetic acid solution. One aliquot of the incubate is transferred onto a 96-well solid phase extraction plate and extracted. The ^14C-formaldehyde formed during the reaction is not retained on the solid phase extraction plate and is thus separated from the unmetabolised substrate by washing the solid phase extraction plate with water. One aliquot of the eluate is transferred into a well plate suitable for liquid scintillation. […] The IC50 is determined by the least squares method using the following formula: control activity=(100% control activity/(1+(I/IC50)S))−B where I=Inhibitor concentration S=Pitch B=Background activity
When the inhibition of the reaction is >50% even at the lowest concentration of the test compound, the IC50 is given as <0.4 μM.

Data set [1] is described as follows: Determining the solubility (saturated solution in McIlvaine buffer pH 7.4, UV spectroscopy). The following applies: pH 7.4, aqueous buffer, thermodynamic from solid, shaken 2 hours, 0.75 mg solid in 0.75 ml. The class given is physicochemical. The method, then: Determining the Solubility:
Saturated solutions are prepared in suitable well dishes by adding 0.75 ml of a McIlvaine buffer (pH 7.4) to the well in question containing 0.75 mg of solid of an active substance. The wells are shaken for 2 hours and then filtration is carried out through a suitable filter membrane (typically polytetrafluoroethylene with a pore size of 0.45 μm). Filter absorption is prevented by discarding the first few drops of filtrate. The amount of active substance dissolved is determined by UV spectroscopy.

pIC50: −log10 of the molar value. Converted amounts (≈) assume the structure as drawn.

Sequence of p38 MAP-kinase (Q16539 whole entry): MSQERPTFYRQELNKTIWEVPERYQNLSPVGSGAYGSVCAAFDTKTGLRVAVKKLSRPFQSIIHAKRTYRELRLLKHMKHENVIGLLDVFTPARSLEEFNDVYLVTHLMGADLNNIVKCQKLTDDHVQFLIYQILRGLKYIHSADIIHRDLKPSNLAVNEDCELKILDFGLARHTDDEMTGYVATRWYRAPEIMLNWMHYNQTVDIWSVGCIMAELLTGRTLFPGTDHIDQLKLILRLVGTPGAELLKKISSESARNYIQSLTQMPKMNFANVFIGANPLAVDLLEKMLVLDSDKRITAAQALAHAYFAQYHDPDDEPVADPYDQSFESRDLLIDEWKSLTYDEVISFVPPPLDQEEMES
Sequence of cytochrome P450 2C9 (P11712 whole entry): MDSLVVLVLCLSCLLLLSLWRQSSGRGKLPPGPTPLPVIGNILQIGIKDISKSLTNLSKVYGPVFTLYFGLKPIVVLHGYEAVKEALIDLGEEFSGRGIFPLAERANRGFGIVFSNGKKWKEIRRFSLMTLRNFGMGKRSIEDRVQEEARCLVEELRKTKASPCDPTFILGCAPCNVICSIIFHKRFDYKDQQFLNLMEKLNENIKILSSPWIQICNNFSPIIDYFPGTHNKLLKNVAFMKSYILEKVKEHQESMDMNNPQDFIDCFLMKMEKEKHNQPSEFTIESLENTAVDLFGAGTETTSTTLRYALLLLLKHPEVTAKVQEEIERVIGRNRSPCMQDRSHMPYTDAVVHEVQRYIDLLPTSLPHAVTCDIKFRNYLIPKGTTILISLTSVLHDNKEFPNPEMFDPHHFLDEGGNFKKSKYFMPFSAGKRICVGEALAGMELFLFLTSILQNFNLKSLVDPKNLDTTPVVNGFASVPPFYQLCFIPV

As a reminder, the pIC50 is the IC50 on a negative log10 scale, so that one unit is a factor of ten. Usually solubility stands for the dissolved amount per volume that the medium holds. In the case of `COc1c(NC(=O)c2cc3cccc(CN4CCCN(C(=O)[C@@H]5CCN(C)C5)CC4)c3n2C)cc(C(C)(C)C)cc1NS(C)(=O)=O` [5(2), (R)-1-methyl-7-[4-(1-methyl-pyrrolidine-3-carbonyl)-[1,4]diazepan-1-ylmethyl]-1H-indole-2-carboxylic acid-(5-tert-butyl-3-methanesulphonylamino-2-methoxy-phenyl)-amide], on p38 MAP-kinase, the inhibition at 1 µM was 98%. In addition, the pIC50 at cytochrome P450 2C9 was 6.00. In addition, the solubility at 2 h in data set [1] came to 160 µg/mL (≈ 245 µM).
For the compound `COc1c(NC(=O)c2cc3cccc(CN4CCN(C(=O)CN5CC[C@@H](O)C5)CC4)c3n2C)cc(C(C)(C)C)cc1NS(C)(=O)=O` [6(1), (R)-7-{4-[2-(3-hydroxy-pyrrolidin-1-yl)-acetyl]-piperazin-1-ylmethyl}-1-methyl-1H-indole-2-carboxylic acid-(5-tert-butyl-3-methanesulphonylamino-2-methoxy-phenyl)-amide], the inhibition at 1 µM on p38 MAP-kinase came out at 99.2%. Also, the pIC50 on cytochrome P450 2C9 was 6.33. In data set [1], this compound displayed a solubility at 2 h of 47 µg/mL (≈ 71.8 µM).
On to `COc1c(NC(=O)c2cc3cccc(CN4CCN(C(=O)CN5CC[C@@H](N(C)C)C5)CC4)c3n2C)cc(C(C)(C)C)cc1NS(C)(=O)=O` [6(2), (R)-7-{4-[2-(3-dimethylamino-pyrrolidin-1-yl)-acetyl]-piperazin-1-ylmethyl}-1-methyl-1H-indole-2-carboxylic acid-(5-tert-butyl-3-methanesulphonylamino-2-methoxy-phenyl)-amide], for which the inhibition at 1 µM at p38 MAP-kinase is 98.9%. In addition, the pIC50 on cytochrome P450 2C9 was 6.15. For the same compound, the solubility at 2 h in data set [1] is above 1000 µg/mL.
`COc1c(NC(=O)c2cc3cccc(CN4CCN(C(=O)CN5CC[C@H](N(C)C)C5)CC4)c3n2C)cc(C(C)(C)C)cc1NS(C)(=O)=O` [6(3), (S)-7-{4-[2-(3-dimethylamino-pyrrolidin-1-yl)-acetyl]-piperazin-1-ylmethyl}-1-methyl-1H-indole-2-carboxylic acid-(5-tert-butyl-3-methanesulphonylamino-2-methoxy-phenyl)-amide]: at p38 MAP-kinase, the inhibition at 1 µM came to 98.5%. Moreover, the pIC50 at cytochrome P450 2C9 was 5.53. Besides, the solubility at 2 h in data set [1] was 910 µg/mL (≈ 1330 µM).
For `COc1c(NC(=O)c2cc3cccc(CN4CCCN(C(=O)C5CCN(C)CC5)CC4)c3n2C)cc(C(C)(C)C)cc1NS(C)(=O)=O` [8(1), 1-methyl-7-[4-(1-methyl-piperidine-4-carbonyl)-[1,4]diazepan-1-ylmethyl]-1H-indole-2-carboxylic acid-(5-tert-butyl-3-methanesulphonylamino-2-methoxy-phenyl)-amide], the inhibition at 1 µM at p38 MAP-kinase is 98.1%. Also, at cytochrome P450 2C9, the pIC50 is 5.19. Besides, the concentration in solution in data set [1] (solubility at 2 h) came to 120 µg/mL (≈ 180 µM).
As to `COc1c(NC(=O)c2cc3cccc(CN4CCN(C(=O)[C@@H]5CCCN5C)CC4)c3n2C)cc(CC(C)C)cc1NS(C)(=O)=O` [8(2), (S)-1-methyl-7-[4-(1-methyl-pyrrolidine-2-carbonyl)-piperazin-1-ylmethyl]-1H-indole-2-carboxylic acid-(5-isobutyl-3-methanesulphonylamino-2-methoxy-phenyl)-amide], the inhibition at 1 µM at p38 MAP-kinase amounted to 99.5%. Besides, the pIC50 at cytochrome P450 2C9 was 5.24. Also, the solubility at 2 h in data set [1] is 120 µg/mL (≈ 188 µM).
As for `COc1c(CN(C(C)C)C(C)C)cc(C(C)(C)C)cc1NC(=O)c1cc2cccc(CN3CCN(C(=O)[C@@H]4CCCN4C)CC3)c2n1C` [9(1), (S)-1-methyl-7-[4-(1-methyl-pyrrolidine-2-carbonyl)-piperazin-1-ylmethyl]-1H-indole-2-carboxylic acid-{5-tert-butyl-3-[(diisopropylamino)-methyl]-2-methoxy-phenyl}-amide], at p38 MAP-kinase, the inhibition at 1 µM came out at 95.8%. At cytochrome P450 2C9, the pIC50 is 5.17. The same compound returned a solubility at 2 h in data set [1] of 570 µg/mL (≈ 865 µM).
For the compound `CCN(CC)Cc1cc(C(C)(C)C)cc(NC(=O)c2cc3cccc(CN4CCN(C(=O)[C@@H]5CCCN5C)CC4)c3n2C)c1OC` [9(2), (S)-1-methyl-7-[4-(1-methyl-pyrrolidine-2-carbonyl)-piperazin-1-ylmethyl]-1H-indole-2-carboxylic acid-(5-tert-butyl-3-diethylaminomethyl-2-methoxy-phenyl)-amide], the inhibition at 1 µM on p38 MAP-kinase is 98.2%. The pIC50 on cytochrome P450 2C9 was 5.11. In data set [1], the concentration in solution (solubility at 2 h) came to 860 µg/mL (≈ 1360 µM).
In the case of `COc1c(CN2CCCC(N(C)C)C2)cc(C(C)(C)C)cc1NC(=O)c1cc2cccc(CN3CCN(C(=O)[C@@H]4CCCN4C)CC3)c2n1C` (stereo partly drawn) [9(3), 1-methyl-7-[4-((2S)-1-methyl-pyrrolidine-2-carbonyl)-piperazin-1-ylmethyl]-1H-indole-2-carboxylic acid-[5-tert-butyl-3-(3-dimethylamino-piperidin-1-ylmethyl)-2-methoxy-phenyl]-amide], the inhibition at 1 µM at p38 MAP-kinase is 98.9%. Moreover, the pIC50 at cytochrome P450 2C9 is 5.16. Further, the solubility at 2 h in data set [1] turned out to be 700 µg/mL (≈ 1020 µM).
As for `CCN(CC)C1CCN(Cc2cc(C(C)(C)C)cc(NC(=O)c3cc4cccc(CN5CCN(C(=O)[C@@H]6CCCN6C)CC5)c4n3C)c2OC)C1` (stereo partly drawn) [9(4), 1-methyl-7-[4-((2S)-1-methyl-pyrrolidine-2-carbonyl)-piperazin-1-ylmethyl]-1H-indole-2-carboxylic acid-[5-tert-butyl-3-(3-diethylamino-pyrrolidin-1-ylmethyl)-2-methoxy-phenyl]-amide], at p38 MAP-kinase, the inhibition at 1 µM worked out at 98%. Also, the pIC50 on cytochrome P450 2C9 is 5.09. Also, the concentration in solution in data set [1] (solubility at 2 h) came to 690 µg/mL (≈ 986 µM).
For `COc1c(CN2CCC(N(C)C)CC2)cc(C(C)(C)C)cc1NC(=O)c1cc2cccc(CN3CCN(C(=O)[C@@H]4CCCN4C)CC3)c2n1C` [9(5), (S)-1-methyl-7-[4-(1-methyl-pyrrolidine-2-carbonyl)-piperazin-1-ylmethyl]-1H-indole-2-carboxylic acid-[5-tert-butyl-3-(4-dimethylamino-piperidin-1-ylmethyl)-2-methoxy-phenyl]-amide], in that order: 97.5%, 5.16 and 490 µg/mL (≈ 714 µM).
Turning to `CCN(CC)C1CCN(Cc2cc(C(C)(C)C)cc(NC(=O)c3cc4cccc(CN5CCN(C(=O)[C@@H]6CCCN6C)CC5)c4n3C)c2OC)CC1` [9(6), (S)-1-methyl-7-[4-(1-methyl-pyrrolidine-2-carbonyl)-piperazin-1-ylmethyl]-1H-indole-2-carboxylic acid-[5-tert-butyl-3-(4-diethylamino-piperidin-1-ylmethyl)-2-methoxy-phenyl]-amide], the inhibition at 1 µM at p38 MAP-kinase was found to be 97.7%. On cytochrome P450 2C9, the pIC50 was 4.98. In data set [1], this compound returned a solubility at 2 h of 470 µg/mL (≈ 658 µM).
For the compound `COc1c(CN2CCN(C(C)C)CC2)cc(C(C)(C)C)cc1NC(=O)c1cc2cccc(CN3CCN(C(=O)[C@@H]4CCCN4C)CC3)c2n1C` [9(7), (S)-1-methyl-7-[4-(1-methyl-pyrrolidine-2-carbonyl)-piperazin-1-ylmethyl]-1H-indole-2-carboxylic acid-[5-tert-butyl-3-(4-isopropyl-piperazin-1-ylmethyl)-2-methoxy-phenyl]-amide], the inhibition at 1 µM at p38 MAP-kinase came out at 98.8%. The pIC50 on cytochrome P450 2C9 is 4.35. The compound further returned a solubility at 2 h in data set [1] of 880 µg/mL (≈ 1280 µM).
The corresponding values for `COc1c(NC(=O)c2cc3cccc(CN4CCN(C(=O)[C@@H]5CCCN5C)CC4)c3n2C)cc(C(C)(C)C)cc1C(=O)NC(C)C` [10(1), (S)-1-methyl-7-[4-(1-methyl-pyrrolidine-2-carbonyl)-piperazin-1-ylmethyl]-1H-indole-2-carboxylic acid-(5-tert-butyl-3-isopropylcarbamoyl-2-methoxy-phenyl)-amide] are 99.1%, 5.89 and 380 µg/mL (≈ 602 µM).
